Experimental data published in patent publication US5298523A, “Method for treating transplant patients using mycalamide compounds” (priority 1992, dated 1994).
Converted amounts (≈) assume the structure as drawn. Where two headings read alike, the source gives them in different places.

Tests used:
[1] = tested on: two-way human mixed lymphocyte response (human PBL); assay: Two-way human mixed lymphocyte reaction (MLR), 3H-thymidine incorporation; format: cell-based
Description: (§1) Preparation of human peripheral blood leukocyte (PBL) suspensions. Human peripheral blood suspensions were prepared from Leukotrap blood filters as follows: Leukotrap filters containing processed leukocytes from random, unrelated blood donors were obtained from the Indian River Blood Bank (Vero Beach, Fla.). Buffy-coat blood cell suspensions were recovered by reverse-flow phosphate-buffered saline purging and centrifugation for 15 minutes at 475× g. Buffy coats were removed, and 5 ml of the suspension was layered onto 5 ml of Histopaque gradient material. The Histopaque gradients were centrifuged at 475× g for 30 minutes. Lymphocytes were removed from the Histopaque-medium interface, and washed twice with 10 ml of PBS (Dulbecco's phosphate-buffered saline without CaCl2 and MgCl2.6H2 O). The final cell pellet was resuspended in TCM, and the cell concentration adjusted to 2×10^6 cells/ml.
Two way mixed lymphocyte reaction (MLR). The immunosuppressive properties of mycalamide A were evaluated using the two-way MLR, utilizing murine splenocytes and human PBL. For the murine MLR, splenocytes from C57Bl/6J and BALB/c mice were prepared as described above, and a volume of […] of each cell suspension was added together to test and control wells of microtiter plates. Wells containing 0.20 ml of each cell suspension alone served as controls.
Dilutions of the drug to be tested were prepared in absolute EtOH and further diluted to the appropriate concentration in TCM and added directly to the wells containing splenocyte combinations. Additional solvent (EtOH) control wells were also prepared by adding the equivalent percentage of EtOH to each culture well. Plates were incubated at 37° C. in a 5% CO2 humidified atmosphere for 88 hours. Following the incubation, 1.0 μCi of ^3 H-thymidine was added to each well, and the plates were returned to the incubator for 5 hours. The contents of each well were harvested onto glass-fiber filter strips, and the incorporation of ^3 H-thymidine was determined by a liquid scintillation counter. Similar conditions were utilized for MLR cultures using human peripheral blood lymphocytes prepared from unrelated donors as described above, with the exception that the initial incubation and subsequent ^3 H-thymidine pulse times were different (114 hours for initial incubation followed by a 6-hour incubation with ^3 H-thymidine). Plates were harvested in a similar manner, and ^3 H-thymidine incorporation determined as described above.

[2] = tested on: human peripheral blood lymphocytes (PBL); assay: Mitogen-induced proliferation of human peripheral blood lymphocytes; format: cell-based; conditions: Lymphocyte; for activity at 0.5 µg/mL: 5.0 × 10^-1 μg/ml; for activity at 0.05 µg/mL: 5.0 × 10^-2 μg/ml; for activity at 0.005 µg/mL: 5.0 × 10^-3 μg/ml; for activity at 0.0005 µg/mL: 5.0 × 10^-4 μg/ml; for activity at 50 pg/mL: 5.0 × 10^-5 μg/ml; for activity at 5 pg/mL: 5.0 × 10^-6 μg/ml; for activity at 500 fg/mL: 5.0 × 10^-7 μg/ml; for activity at 50 fg/mL: 5.0 × 10^-8 μg/ml; for activity at 5 fg/mL: 5.0 × 10^-9 μg/ml; for activity at 5e-10 µg/mL: 5.0 × 10^-10 μg/ml; for activity at 5e-11 µg/mL: 5.0 × 10^-11 μg/ml
Description: as §1

[3] = tested on: murine CD4^+ T cells; assay: Activation of CD4+ T cells by anti-CD3 mAb/mB7; format: cell-based, murine (BALB/c)
Description: (A) Costimulation of T cells with anti-CD3 mAb and mB7. […] (B) Costimulation of T cells with mB7 and PMA. […] All cultures were incubated for 48 hours and pulsed with 1 μCi [ ^3 H] thymidine/well for the last 6 hours of the incubation period to assay for T cell proliferation.
(§2) (A) Costimulation of T cells with anti-CD3 mAb and mB7. 2×10^5 purified BALB/c CD4^+ T lymphocytes were stimulated with the indicated concentrations of anti-CD3 mAb in the presence of medium (.largecircle.), 2×10^4 paraformaldehyde-fixed CHO-mB7 cells (.quadrature.), or 2×10^4 paraformaldehyde-fixed CHO-mB7 cells in the presence of 0.1 nM FK506 (.gradient.), 1 nM FK506 (Δ), or 10 nM FK506 ( ). (B) Costimulation of T cells with mB7 and PMA. 2×10^5 purified BALB/c CD4^+ T lymphocytes were stimulated with the indicated concentrations of PMA and either medium (.largecircle.), 2×10^4 paraformaldehyde-fixed CHO-mB7 cells (.quadrature.), or paraformaldehyde-fixed CHO-mB7 cells in the presence of 0.1 nM FK506 (.gradient.), 1 nM FK506 (Δ), or 10 nM FK506 ( ). All cultures were incubated for 48 hours and pulsed with 1 μCi [^3 H] thymidine/well for the last 6 hours of the incubation period to assay for T cell proliferation.
as §2, with “pM mycalamide A” for “nM FK506”
mB7-mediated activation of murine CD4^+ T cells. Mouse T cells were purified as follows: splenocytes were depleted of red blood cells by treatment with Tris-NH4 Cl. T cells were enriched by nylon wool fractionation. CD4^+ T cells from BALB/c mice were purified by two-fold treatment with a mixture of anti-MHC Class II and anti-CD8 monoclonal antibodies and rabbit complement. Chinese hamster ovary cells (CHO) and CHO cells transfected with the murine B7 molecule (CHOmB7) were fixed with 1% paraformaldehyde prior to addition to the cultures. Microcultures were set up in duplicate 96-well plates. […] All cultures were incubated for 48 hours and pulsed with 1 μCi ^3 H-thymidine/well for the last 6 hours of the incubation period to assay for T cell proliferation.

[4] = Con A, read-out: Con A, % of control
[5] = PHA, read-out: PHA, % of control

`C=C1CC(OC)(C(O)C(=O)NC2OCOC3C2OC(CC(O)CO)C(C)(C)C3OC)OC(C)C1C` (centres unmarked) [Mycalamide A, mycalamide A] showed an activity at 0.5 µg/mL ([1]; 120 h, human, 5.0 × 10^-1 μg/ml, read-out: % of Positive Control MLR) of 0%, an activity at 0.05 µg/mL ([1]; 120 h, human, 5.0 × 10^-2 μg/ml, read-out: % of Positive Control MLR) of 0% and an activity at 0.005 µg/mL ([1]; 120 h, human, 5.0 × 10^-3 μg/ml, read-out: % of Positive Control MLR) of 0%. It also gave an activity at 0.0005 µg/mL ([1]; 120 h, human, 5.0 × 10^-4 μg/ml, read-out: % of Positive Control MLR) of 40%, an activity at 50 pg/mL ([1]; 120 h, human, 5.0 × 10^-5 μg/ml, read-out: % of Positive Control MLR) of 43% and an activity at 5 pg/mL ([1]; 120 h, human, 5.0 × 10^-6 μg/ml, read-out: % of Positive Control MLR) of 71%. It also gave an activity at 500 fg/mL ([1]; 120 h, human, 5.0 × 10^-7 μg/ml, read-out: % of Positive Control MLR) of 81%, an IC50 ([1]; Homo sapiens) of 0.017 ng/mL and an activity at 0.5 µg/mL [2, 4] of 0%. It also gave an activity at 0.05 µg/mL [2, 4] of 0%, an activity at 0.005 µg/mL [2, 4] of 0% and an activity at 0.0005 µg/mL [2, 4] of 10%. For the same compound, the activity at 50 pg/mL [2, 4] was 44%, the activity at 5 pg/mL [2, 4] was 74% and the activity at 500 fg/mL [2, 4] was 78%. It also gave an activity at 50 fg/mL [2, 4] of 82%, an activity at 5 fg/mL [2, 4] of 90% and an activity at 5e-10 µg/mL [2, 4] of 99%. The activity at 5e-11 µg/mL [2, 4] was 93%, the activity at 0.5 µg/mL [2, 5] was 0% and the activity at 0.05 µg/mL [2, 5] was 0%. It also gave an activity at 0.005 µg/mL [2, 5] of 0%, an activity at 0.0005 µg/mL [2, 5] of 9% and an activity at 50 pg/mL [2, 5] of 41%. For the same compound, the activity at 5 pg/mL [2, 5] was 41%, the activity at 500 fg/mL [2, 5] was 40% and the activity at 50 fg/mL [2, 5] was 43%. For the same compound, the activity at 5 fg/mL [2, 5] was 42%, the activity at 5e-10 µg/mL [2, 5] was 36% and the activity at 5e-11 µg/mL [2, 5] was 47%. The IC50 ([2]; read-out: IC50, PHA stimulation of human PBL) was ~0.0057 ng/mL (≈ 0.0113 nM), the “effect on anti-CD3/mB7 activation of CD4+ cells” value ([3]; anti-CD3/mB7, in words) was “blocks activation” and the “times more potent than FK506” value ([3]; immunosuppressive activity vs FK506) was 10 times. The “times more potent than cyclosporin A” value ([3]; immunosuppressive activity vs cyclosporin A) was “approximately 1000 times” and the “suppressive activity compared with FK506 or CsA” value ([3]; in words) was “superior to FK506 or CsA”.
